# In patent publication US20260055141A1, “COMPOSITIONS AND METHODS FOR CONTROLLING FOOD INTAKE, ENERGY EXPENDITURE, AND BODY WEIGHT FOR THE TREATMENT OF OBESITY AND METABOLIC DISEASES” (The Trustees of the University of Pennsylvania, priority 2022, published 2026):
# pKd: −log10 of the molar value. Entries after “also recorded” stand apart in the source; their conditions may differ. Non-standard residues stand in square brackets, D forms with d. No end group written: not given here.
# Key:
# [1] = type: in vivo, rat; conditions: for food intake compared to control: SU75-36 20 or 200 μg, SU75-37 20 μg, 1, 3, 6, 24 h; for body weight change after 24 hours: any dosage, rats fed chow or HFD; for kaolin intake (pica, model of malaise and nausea): rat, in vivo
# Method: Adult male Sprague-Dawley rats (Charles River) were individually housed under a 12 h-light: 12 h-dark cycle in a temperature and humidity-controlled satellite vivarium and had ad libitum access to water and chow (5001, LabDiet) or a 60% high fat diet (HFD): D12492, Research Diets) and when applicable had ad libitum access to kaolin pellets (K50001, Research Diets). Rats were exposed to kaolin for at least 5 days prior to measuring kaolin consumption in pica testing. Except for studies conducted in the bioDAQ, for all feeding studies rats were housed in hanging wire cages to allow for accurate measurement of food spillage. Experiments were conducted under the National Institutes for Health Guide for the Care and Use of Laboratory Animals and all procedures were approved by the Institutional Animal Care and Use Committee at the University of Pennsylvania.
# For cannula implantation, rats were anesthetized by intraperitoneal injection of a mixture containing ketamine (90 mg/kg, Butler Animal Health Supply), xylazine (2.7 mg/kg, Anased), and acepromazine (0.64 mg/kg, Butler Animal Health Supply) (KAX) and then placed into a stereotaxic apparatus. Each rat was stereotaxically implanted with a guide cannula (26-ga, Plastics One) aimed at the fourth ventricle (guide cannula coordinates: on midline. 2.5 mm anterior to occipital suture, 5.2 mm ventral to skull; internal cannula aimed 7.2 mm ventral to skull) or the lateral ventricle (guide cannula coordinates: 1.5 mm lateral to midline, 0.9 mm posterior to bregma. 1.8 mm ventral to skull; internal cannula aimed 3.8 mm ventral to skull). For all cannulas, dummies (no projection beyond guide) were inserted in the guide cannula and left until infusions were performed. For all surgeries, rats received post-operative temperature support and analgesia was provided immediately following surgery and for two post-operative days (2 mg/kg meloxicam).
# For all studies measuring food intake following drug treatment, central injections were given at a volume of 2 μL using a Hamilton syringe terminating in an injector tip extending 2.0 mm beyond the guide cannula. For acute treatment days, rats were food deprived for 2 hours before the dark cycle and injections were done immediately prior to the dark cycle onset. Food and kaolin intake was measured 1, 3, 6, and 24 hours after injections were completed and food crumbs were weighed and accounted for between each timepoint. Body weight was measured during injections and 24 hours after. Injection treatments were organized in a counterbalanced, within-subjects design and separated by ≥72 h.
# In a separate experiment, chow maintained (n=10) and diet-induced obese (DIO) rats (n=12) were administered 20 μg SU75-36, 200 μg SU75-36, or 20 μg SU75-37 by intracerebroventricular injection to the lateral ventricle and observed over 24 hours. One group of rats was administered a vehicle without a GPR75 inhibitor as a negative control. All rats were given ad libitum access to access to water, kaolin pellets to assess pica behavior, and food, either a standard chow diet or a 60% high fat diet (HFD). The food intake of chow (FIG. 8A) or HFD (FIG. 8B), and kaolin take of chow-maintained rats (FIG. 8C) and HFD-maintained rats (FIG. 8D) of each rat was observed 1, 3, 6, and 24 hours after administration of the GPR75 inhibitor.
# Rats were weighed at the beginning of the experiment and 24 hours after administration of the GPR75 inhibitor. The weight change of each rat after 24 hours was then calculated. […] (FIGS. 8E, 8F).
# [2] = Circular dichroism (CD) spectroscopy, secondary structure; conditions: 40 μM in 0.5% saline
# [3] = target: T1, human GLP-1R (21-139aa region) (Homo sapiens, UniProt P43220); assay: Surface Plasmon Resonance (SPR) binding at hGLP-1R; conditions: for binding at hGLP-1R: Ex-4 positive and ODN negative control
# T1 construct: human GLP-1R (21-139aa region); purchased rndsystems.com (R&D Systems) 10956-GL
# Method: SU75-36, SU75-37, Ex-4, and ODN binding at the human GLP-1R (21-139aa region; available on the world wide web at rndsystems.com cat #10956-GL) was measured via a Nicoya Open SPR instrument using His-tagged hGLP-1R bound to an NTA-coated gold sensor (Nicoya cat #SEN-AU-100-10-NTA) using HBSS (in-house) at 20 μL/min flow rate. Data was fit via a global, one-to-one model using Nicoya OpenSPR software. In-house Ex-4 and ODN were used as the positive and negative controls, respectively.
# [4] = lateral ventricle, chow and HFD rats
substance,measurement,setting,value
H[dS]QGTFTSDLSKYLEEEVREFIWLKNGGPSDVNTDRPGLLDLK-NH2 [SU75-36],food intake compared to any of the other groups,"[1]; lateral ventricle, 200 μg, chow and HFD rats",further decrease
same,food intake compared to control,[1]; [4],significant decrease in food intake
same,body weight change after 24 hours,[1]; lateral ventricle,significant decrease in weight
same,"kaolin intake (pica, model of malaise and nausea)",[1],absence of kaolin intake
same,secondary structure (folded state) from CD spectra,[2],typical α-helix
same,binding at hGLP-1R,[3],poor binding
same,pKd,"[3]; His-tagged hGLP-1R on NTA sensor, HBSS",3.74
TFTSDLSKYLEEEVREFIWLKNGGPSDVNTDRPGLLDLK-NH2 [SU75-37],food intake compared to control,[1]; [4],significant decrease in food intake
same,body weight change after 24 hours,[1]; lateral ventricle,significant decrease in weight
same,"kaolin intake (pica, model of malaise and nausea)",[1],absence of kaolin intake
same,secondary structure (folded state) from CD spectra,[2],typical α-helix
same,binding at hGLP-1R,[3],did not bind; also recorded: does not bind
